Experiments:
Calu-6 = assay: Cytotoxicity on human cancer cells in tissue culture, crystal violet staining; format: cell-based
Experimental: (§1) The anti-tumoral activity of compounds was determined in tissue culture media of pH of 6.8 and 7.4. Cells were incubated for 2 h with the test compounds, followed by 24-96 h incubation with regular, inhibitor free medium of pH 7.4. The substances were serially diluted in tissue culture medium of the desired pH. After incubation, surviving cells were stained with crystal violet and the optical density was measured in an ELISA reader.

SK-OV3 = assay: as above; format: cell-based
Experimental: as §1

KB = assay: as above; format: cell-based
Experimental: as §1

MCF-7 = assay: as above; format: cell-based
Experimental: as §1

LXF-289 = assay: as above; format: cell-based
Experimental: as §1

SK-MEL-25 = assay: as above; format: cell-based
Experimental: as §1

[1] = system: six human tumor cell lines; assay: Cytotoxic activity in a panel of six human tumor lines (comparisons and pH quotient); format: cell-based; conditions: mean ± SD over the human tumor cell lines tested
Experimental: FIG. 2: Mean quotient of IC50 at pH 7.4/IC50 at pH 6.8 Mean values ±SD of IC50 at pH 7.4/IC50 at pH 6.8 for all six human tumor cell lines tested. IC50at both pH conditions were obtained for four cell lines.
Calu-6 (adenocarcinoma, lung), SK-MEL-25 (melanoma), MCF-7 (mamma carcinoma), LXF-289 (adenocarcinoma, lung), SK-OV -3 (adenocarcinoma, ovary), KB (squameous cell carcinoma, head and neck) were obtained from ATCC and were cultivated according to the instructions of the supplier at 37° C., 5% CO2 atmosphere and 100% relative humidity.
as §1, with “reader. The concentration which was needed to reduce the cell number by 50% (IC50) was determined from dose-response curves for each compound.” for “reader.”

[2] = system: human tumors xenotransplanted in nude mice; conditions: cited from earlier work
tumor cells = conditions: cited from earlier work
[3] = Calu-6, pH 6.8, 2 h incubation, mean of four assays
[4] = Calu-6, pH 7.4, 2 h incubation, mean of four assays
[5] = SK-0V-3, pH 6.8, 2 h incubation, mean of four assays
[6] = SK-0V-3, pH 7.4, 2 h incubation, mean of four assays
[7] = KB, pH 6.8, 2 h incubation, mean of four assays
[8] = KB, pH 7.4, 2 h incubation, mean of four assays
[9] = MCF-7, pH 6.8, 2 h incubation, mean of four assays
[10] = MCF-7, pH 7.4, 2 h incubation, mean of four assays
[11] = LXF-289, pH 6.8, 2 h incubation, mean of four assays
[12] = LXF-289, pH 7.4, 2 h incubation, mean of four assays
[13] = SK-MEL-25, pH 6.8, 2 h incubation, mean of four assays
[14] = SK-MEL-25, pH 7.4, 2 h incubation, mean of four assays

Row | Compound | IC50 (Calu-6; [3]) | IC50 (Calu-6; [4]) | IC50 (SK-OV3; [5]) | IC50 (SK-OV3; [6]) | IC50 (KB; [7]) | IC50 (KB; [8]) | IC50 (MCF-7; [9]) | IC50 (MCF-7; [10]) | IC50 (LXF-289; [11]) | IC50 (LXF-289; [12]) | IC50 (SK-MEL-25; [13]) | IC50 (SK-MEL-25; [14]) | also measured
1 | COC(=S)[S][Pt][S]C(=S)OC [r1, Bis(O-methyl-dithiocarbonato)platinum (II)] |  |  |  |  |  |  |  |  |  |  |  |  | IC50 (Calu-6; pH 6.8): 11 ± 2.9 µM; IC50 (Calu-6; pH 7.4): 21 ± 5.6 µM; IC50 (SK-OV3; pH 6.8): 26 ± 2.4 µM; IC50 (SK-OV3; pH 7.4): 47 ± 2.9 µM; IC50 (KB; pH 6.8): 20 ± 1 µM; IC50 (KB; pH 7.4): 49 ± 2 µM; IC50 (MCF-7; pH 6.8): 7 ± 1 µM; IC50 (MCF-7; pH 7.4): 19 ± 4.4 µM; IC50 (LXF-289; pH 6.8): 39 ± 9.5 µM; IC50 (LXF-289; pH 7.4): 102 ± 19.3 µM; IC50 (SK-MEL-25; pH 6.8): 14 ± 5 µM; IC50 (SK-MEL-25; pH 7.4): 80 ± 25.9 µM
2 | Bis(O-propyl-dithiocarbonato)platinum(II) [r3] | 7 ± 1.1 µM | 21 ± 0.9 µM | 45 ± 27 µM | 50 ± 1 µM | 12 ± 1 µM | 38 ± 3 µM | 4 ± 1 µM | 9 ± 3 µM | 37 ± 9 µM | 49 ± 5 µM | 10 ± 1.5 µM | 21 ± 1.9 µM | 
3 | Bis(O-cyclobutyl-dithiocarbonato)platinum(II) [Compound 18] | 3 ± 0.4 µM | 7 ± 1.2 µM | 17 ± 2.9 µM | 19 ± 4.1 µM | 6 ± 0.6 µM | 20 ± 2.9 µM | 11 ± 0.8 µM | 21 ± 1 µM | 37 ± 1.4 µM | 44 ± 0.8 µM | 7 ± 1 µM | 12 ± 3.7 µM | 
4 | CC(C)OC(=S)[S][Pt][S]C(=S)OC(C)C [Compound 15, Bis(O-isopropyl-dithiocarbonato)platinum(II)] | 6 ± 0.6 µM | 10 ± 0.6 µM | 14 ± 2.1 µM | 33 ± 8 µM | 6 ± 0.4 µM | 10 ± 0.9 µM | 3 ± 0.9 µM | 7 ± 3 µM | 10 ± 1.7 µM | 30 ± 0.4 µM | 6 ± 0.4 µM | 12 ± 1.5 µM | Mean quotient of IC50 at pH 7.4/IC50 at pH 6.8 [1]: 2.18±0.49
5 | N.N.[Cl][Pt][Cl] [Cisplatin, cis-dichloro-diammine-platinum(II)] | 16 ± 1 µM | 25 ± 5.7 µM | 64 ± 0.7 µM | 90 ± 2.77 µM | 55 ± 2 µM | 52 ± 3.3 µM | 108 ± 27 µM | 160 ± 30 µM | 113 ± 22.3 µM | 83 ± 23 µM | 78 ± 3.3 µM | 90 ± 25 µM | 
6 | CCOC(=S)[S][Pt][S]C(=S)OCC [r2, Bis(O-ethyl-dithiocarbonato)platinum(II)] | 21 ± 3.9 µM | 24 ± 0.9 µM | 86 ± 3.2 µM | 98 ± 16.5 µM | 18 ± 4 µM | 58 ± 5 µM | 12 ± 0.2 µM | 47 ± 5.3 µM | 45 ± 8 µM | 91 ± 24.9 µM | 21 ± 3 µM | 56 ± 6.2 µM | toxicity on kidneys, small intestines and white blood cell count ([2]; mouse, in vivo): significantly lower toxicity; anti-tumoral activity on human tumors xenotransplanted in nude mice ([2]; versus cisplatin): comparable to cisplatin; cytotoxicity in media of pH 6.8 as compared to pH 7.4 (tumor cells): significantly higher cytotoxicity

From patent US20070248570A1, “Pharmaceutical Compositions Containing Platinum Complexes with Secondary Xanthates and Therapeutic Uses Thereof” (priority 2003, published 2007)
